The text below walks through data of ChEMBL document CHEMBL3132778, “Structureactivity relationships of tetrahydrocarbazole derivatives as antifungal lead compounds” (Medchemcomm, 2013).

Values after ≈ are worked out from the molar mass of the structure shown.

What all share (assay type): functional
For one assay, the system named is Cryptococcus neoformans. Nature of the assay: Antifungal activity against Cryptococcus neoformans after 72 hrs by serial dilution method.
A further assay deals with Candida parapsilosis. Nature of the assay: Antifungal activity against Candida parapsilosis after 24 hrs by serial dilution method. The following applies: Lodderomyces parapsilosis.
In the next assay the test system is Kluyveromyces marxianus. Nature of the assay: Antifungal activity against Candida kefyr after 24 hrs by serial dilution method.
Another assay relates to Aspergillus fumigatus. Nature of the assay: Antifungal activity against Aspergillus fumigatus after 7 days by serial dilution method. The following applies: 168 h.
Another assay deals with Candida albicans. Nature of the assay: Antifungal activity against Candida albicans after 24 hrs by serial dilution method.
For the next assay, the system named is Candida tropicalis. Nature of the assay: Antifungal activity against Candida tropicalis after 24 hrs by serial dilution method.

As to `O=C(Nc1ccc(Br)cc1)c1ccc2c(c1)c1c(n2CCCNCc2ccccc2)CCCC1`, the MIC80 (usually the lowest concentration that inhibits either 80% of growth or 80% of the strains tested, depending on the study) with Cryptococcus neoformans was 16 µg/mL (≈ 31 µM); against Candida parapsilosis it was more than 64 µg/mL; in the assay with Kluyveromyces marxianus, more than 64 µg/mL; against Aspergillus fumigatus it was 64 µg/mL (≈ 124 µM); in the assay on Candida albicans, 32 µg/mL (≈ 62 µM); against Candida tropicalis, more than 64 µg/mL.
Regarding `O=C(c1ccc2c(c1)c1c(n2CCCNCc2ccccc2)CCCC1)c1ccccn1`, the MIC80 against Cryptococcus neoformans is 64 µg/mL (≈ 151 µM); against Candida parapsilosis, more than 64 µg/mL; in the assay on Kluyveromyces marxianus it was more than 64 µg/mL; against Aspergillus fumigatus, more than 64 µg/mL; against Candida albicans, 64 µg/mL (≈ 151 µM); in the assay on Candida tropicalis, more than 64 µg/mL.
For the compound `O=C(Nc1ccccc1)c1ccc2c(c1)c1c(n2CCCNCc2ccccc2)CCCC1`, the MIC80 in the assay on Cryptococcus neoformans is 64 µg/mL (≈ 146 µM); against Candida parapsilosis, more than 64 µg/mL; in the assay on Kluyveromyces marxianus, more than 64 µg/mL; with Aspergillus fumigatus it was more than 64 µg/mL; with Candida albicans, 32 µg/mL (≈ 73.1 µM); against Candida tropicalis, more than 64 µg/mL.
As for `O=C(NCc1ccccc1)c1ccc2c(c1)c1c(n2CCCNCc2ccccc2)CCCC1`, the MIC80 is 64 µg/mL (≈ 142 µM) with Cryptococcus neoformans; more than 64 µg/mL in the assay on Candida parapsilosis; more than 64 µg/mL in the assay with Kluyveromyces marxianus; more than 64 µg/mL against Aspergillus fumigatus; more than 64 µg/mL against Candida albicans; more than 64 µg/mL in the assay on Candida tropicalis.
As to `O=C(Oc1ccccc1)c1ccc2c(c1)c1c(n2CCCNCc2ccccc2)CCCC1`, the MIC80 against Cryptococcus neoformans was more than 64 µg/mL; against Candida parapsilosis, more than 64 µg/mL; in the assay on Kluyveromyces marxianus, more than 64 µg/mL; against Aspergillus fumigatus, 64 µg/mL (≈ 146 µM); in the assay on Candida albicans, 64 µg/mL (≈ 146 µM); in the assay with Candida tropicalis, more than 64 µg/mL.
As to `O=C(OC1CCCCC1)c1ccc2c(c1)c1c(n2CCCNCc2ccccc2)CCCC1`, the MIC80 is more than 64 µg/mL with Cryptococcus neoformans; more than 64 µg/mL in the assay with Candida parapsilosis; more than 64 µg/mL against Kluyveromyces marxianus; more than 64 µg/mL with Aspergillus fumigatus; 64 µg/mL (≈ 144 µM) against Candida albicans; more than 64 µg/mL against Candida tropicalis.
`CN1CCC(OC(=O)c2ccc3c(c2)c2c(n3CCCNCc3ccccc3)CCCC2)CC1`: the MIC80 was found to be 16 µg/mL (≈ 34.8 µM) against Cryptococcus neoformans; 64 µg/mL (≈ 139 µM) in the assay with Candida parapsilosis; 32 µg/mL (≈ 69.6 µM) against Kluyveromyces marxianus; 32 µg/mL (≈ 69.6 µM) in the assay with Aspergillus fumigatus; 32 µg/mL (≈ 69.6 µM) with Candida albicans; 32 µg/mL (≈ 69.6 µM) against Candida tropicalis.
Regarding `Cc1ccc(C(=O)c2ccc3c(c2)c2c(n3CCCNCc3ccccc3)CCCC2)nc1`, the MIC80 against Cryptococcus neoformans is more than 64 µg/mL; with Candida parapsilosis, more than 64 µg/mL; in the assay on Kluyveromyces marxianus it was more than 64 µg/mL; with Aspergillus fumigatus, more than 64 µg/mL; against Candida albicans, 64 µg/mL (≈ 146 µM); against Candida tropicalis, more than 64 µg/mL.
As to `O=C(OCc1ccc2c(c1)c1c(n2CCCNCc2ccccc2)CCCC1)c1ccccc1`, the MIC80 with Cryptococcus neoformans, against Candida parapsilosis, against Kluyveromyces marxianus, with Aspergillus fumigatus, against Candida albicans and against Candida tropicalis was more than 64 µg/mL in each case.
`O=C(OC1CCNCC1)c1ccc2c(c1)c1c(n2CCCNCc2ccccc2)CCCC1`: the MIC80 is 32 µg/mL (≈ 71.8 µM) in the assay with Cryptococcus neoformans; 32 µg/mL (≈ 71.8 µM) against Candida parapsilosis; 64 µg/mL (≈ 144 µM) with Kluyveromyces marxianus; more than 64 µg/mL with Aspergillus fumigatus; 32 µg/mL (≈ 71.8 µM) against Candida albicans; 8 µg/mL (≈ 18 µM) against Candida tropicalis.
As for `c1ccc(CNCCCn2c3c(c4cc(CNc5ccccc5)ccc42)CCCC3)cc1`, the MIC80 is more than 64 µg/mL against Cryptococcus neoformans; more than 64 µg/mL against Candida parapsilosis; more than 64 µg/mL in the assay with Kluyveromyces marxianus; more than 64 µg/mL with Aspergillus fumigatus; 32 µg/mL (≈ 75.5 µM) in the assay on Candida albicans; more than 64 µg/mL in the assay on Candida tropicalis.
With `O=C(c1ccc2c(c1)c1c(n2CCCNCc2ccccc2)CCCC1)c1nccs1`, the MIC80 is more than 64 µg/mL against Cryptococcus neoformans; more than 64 µg/mL in the assay on Candida parapsilosis; more than 64 µg/mL against Kluyveromyces marxianus; more than 64 µg/mL in the assay on Aspergillus fumigatus; 32 µg/mL (≈ 74.5 µM) against Candida albicans; more than 64 µg/mL against Candida tropicalis.
As to `OCc1ccc2c(c1)c1c(n2CCCNCc2ccccc2)CCCC1`, the MIC80 in the assay on Cryptococcus neoformans, against Candida parapsilosis, against Kluyveromyces marxianus, in the assay with Aspergillus fumigatus, in the assay on Candida albicans and in the assay with Candida tropicalis was more than 64 µg/mL each time.
